Results reported in patent EP0185130A1, “5-Alkoxy-2,4,6-triodo or tribromo-isophthalic-acid derivatives, process for their preparation and X-ray contrast agents containing them” (BRACCO INDUSTRIA CHIMICA Società per Azioni, priority 1984, dated 1986).
Converted amounts (≈) assume the structure as drawn. Where two headings read alike, the source gives them in different places.

Assays:
[1] = Water solubility; assay type: physicochemical; conditions: for solubility: water, read-out: Wasserlöslichkeit
[2] = Heat sterilisation of aqueous injection solutions (stability); assay type: physicochemical; conditions: 120 °C for 30 minutes
From the text: Beispielsweise werden die nach den vorstehenden Beispielen erhaltenen reinen 5-Alkoxy-2,4,6-trijodisopthalsäurediamide unter sterilen Bedingungen in der gewünschten Menge bidestilliertem Wasser gelöst, filtriert, unter Zusatz von geringen Mengen EDTA-Na2 und Puffersubstanzen auf pH 6,9 bis 7,1 eingestellt, in Serumflaschen oder Ampullen abgefüllt und anschliessend sterilisiert.

[3] = result in words, no temperature stated

With `COCCOCCOCCOCCOCCOc1c(I)c(C(=O)NC(CO)CO)c(I)c(C(=O)NC(CO)CO)c1I` [Beispiel 3, 5-(3,6,9,12,15-Pentaoxahexadecyl)oxy-2,4,6-trijod-isophthalsäure-bis-(1,3-dihydroxyisopropylamid)] the solubility ([1]; bei Raumtemperatur) was > 1000 mg/mL and the “sterilisieren durch Erhitzen” value [2] was “ohne Schwierigkeiten”.
For “5-(3,6,9-Trioxadecyl)oxy-2,4,6-tribromisophthalsäure-bis(1,3-dihydroxy- isopropylamid) [Beispiel 7]”, the Wasserlöslichkeit ([1]; bei 20 °C) was > 100 % (g/v) and the “sterilisieren durch Erhitzen” value [2] was “ohne Schwierigkeiten”.
With `COCCOCCOCCOCCOCCOCCOCCOc1c(I)c(C(=O)NC(CO)CO)c(I)c(C(=O)NC(CO)CO)c1I` [Beispiel 4, 5-(3,6,9,12,15,18,21-Heptaoxadocosyl)oxy-2,4,6-trijodisophthalsäure-bis(1,3-dihydroxyisopropylamid)] the solubility ([1]; bei 20 °C) was > 1000 mg/mL and the “sterilisieren durch Erhitzen” value [2] was “ohne Schwierigkeiten”.
In the case of `O=C(NC(CO)CO)c1c(I)c(OCCOCCOCCO)c(I)c(C(=O)NC(CO)CO)c1I` [Beispiel 5], the solubility ([1]; bei Raumtemperatur) is reported as > 1000 mg/mL and the “sterilisieren durch Erhitzen” value [2] is reported as “ohne Schwierigkeiten”.
In the case of “5-(3,6,9-Triuxadecyl)oxy-2,4,6-trijodisophthalsäure-bis(1,3-dihydroxy- isopropylamid) [Beispiel 2]”, the Wasserlöslichkeit ([1]; bei Raumtemperatur) is reported as > 100 % (g/v) and the “sterilisieren durch Erhitzen” value [2] is reported as “ohne Schwierigkeiten”.
For `O=C(COc1c(I)c(C(=O)NC(CO)CO)c(I)c(C(=O)NC(CO)CO)c1I)NCC(O)C(O)CNC(=O)COc1c(I)c(C(=O)NC(CO)CO)c(I)c(C(=O)NC(CO)CO)c1I` (stereo not shown) [Beispiel 47, 1,4-Bis-(3,5-bis(1,3-dihydroxyisopropylaminocarbonyl)-2,4,6-trijod-phenoxy-acetylamino)-2,3-dihydroxybutan], the Wasserlöslichkeit [1, 3] was “wasserlöslich”.
For `CCOCCOCCOc1c(I)c(C(=O)NCC(O)CO)c(I)c(C(=O)NC(CO)CO)c1I` (stereo not shown) [Beispiel 42, 1-(3-(1,3-Dihydroxyisopropylaminocarbonyl)-5-(2,3-dihydroxypropylamino-carbonyl)-2,4,6-trijod-phenoxy)-3,6-dioxaoctan], the solubility ([1]; no temperature stated) was > 500 mg/mL.
With `CN(C[C@H](O)[C@@H](O)[C@H](O)[C@H](O)CO)C(=O)COc1c(Br)c(C(=O)NC(CO)CO)c(Br)c(C(=O)NC(CO)CO)c1Br` [Beispiel 29, 5(N-Methyl-N-2,3,4,5,6-pentahydroxyhexyl)aminocarbonylmethoxy-2,4,6-tribromisophthalsäure-bis(1,3-dihydroxyisopropylamid)] the solubility ([1]; bei 20 °C) was > 1000 mg/mL.
Work on `CNC(=O)COc1c(I)c(C(=O)NCC(O)CO)c(I)c(C(=O)NCC(O)CO)c1I` (stereo not shown) [Beispiel 30, 5-Methylaminocarbonylmethoxy-2,4,6-trijodisophthalsäure-bis(2,3-di-hydroxypropylamid)] yielded a solubility ([1]; bei Siedetemperatur) of 20 mg/mL (≈ 25.7 mM).
With `COC(=O)[C@@H](C)Oc1c(Br)c(C(=O)NC(CO)CO)c(Br)c(C(=O)NC(CO)CO)c1Br` [R(+)-5(1(Methoxycarbonyl)ethoxy)-2,4,6-tribromisophthalsäure-bis(1,3-di-hydroxyisopropylamid)] the Wasserlöslichkeit [1, 3] was “sehr gut wasserlösliche”.
In the case of `CN(CC(O)CO)C(=O)COc1c(I)c(C(=O)NCC(O)CO)c(I)c(C(=O)NCC(O)CO)c1I` (stereo not shown) [Beispiel 34, 5-(N-Methyl-N-2,3-dihydroxypropyl)aminocarbonylmethoxy-2,4,6-trijod-isophthalsäure-bis(2,3-dihydroxypropylamid)], the solubility ([1]; bei 25 °C) is reported as > 1000 mg/mL.
In the case of `O=C(NC(CO)CO)c1c(I)c(OCCOCCOCCOc2c(I)c(C(=O)NC(CO)CO)c(I)c(C(=O)NC(CO)CO)c2I)c(I)c(C(=O)NC(CO)CO)c1I` [Beispiel 43, 1,8-Bis-(3,5-bis(1,3-dihydroxyisopropylaminocarbonyl)-2,4,6-trijod-phenoxy)-3,6-dioxaoctan], the Wasserlöslichkeit [1, 3] is reported as “Wenig löslich in Wasser”.
In the case of `CC(Oc1c(I)c(C(=O)NC(CO)CO)c(I)c(C(=O)NC(CO)CO)c1I)C(=O)N(CCO)CCO` (racemic) [Beispiel 18], the solubility ([1]; bei 25 °C) is reported as > 1000 mg/mL.
In the case of `CC(CO)(CO)NC(=O)COc1c(I)c(C(=O)NCC(O)CO)c(I)c(C(=O)NCC(O)CO)c1I` (stereo not shown) [Beispiel 33, 5-(1,3-Dihydroxy-2-methylisopropylaminocarbonylmethoxy)-2,4,6-trijod-isophthalsäure-bis(2,3-dihydroxypropylamid)], the solubility ([1]; bei 25 °C) is reported as > 1000 mg/mL.
For `CC(Oc1c(I)c(C(=O)NC(CO)CO)c(I)c(C(=O)NC(CO)CO)c1I)C(=O)N(C)CC(O)CO` (stereo not shown) [Beispiel 20 R,S], the solubility ([1]; bei 20 °C) was > 1000 mg/mL.
For `O=C(NC(CO)CO)c1c(I)c(OCCCOCCOCCOCCOCCCO)c(I)c(C(=O)NC(CO)CO)c1I` [Beispiel 6, 5-(16-Hydroxy-4,7,10,13-tetraoxahexadecyl)oxy-2,4,6-trijod-isophthalsäure-bis(1,3-dihydroxyisopropylamid)], the solubility ([1]; bei 20 °C) was > 1000 mg/mL.
With `C[C@@H](Oc1c(I)c(C(=O)NC(CO)CO)c(I)c(C(=O)NC(CO)CO)c1I)C(=O)N(C)C[C@H](O)[C@@H](O)[C@H](O)[C@H](O)CO` [Beispiel 28 R] the solubility ([1]; bei 25 °C) was > 1000 mg/mL.
